Measurements reported in patent US5591763A, “treatments for diseases characterized by neovascularization” (President and Fellows of Harvard College, priority 1995, dated 1997).
Entries after “also recorded” stand apart in the source; their conditions may differ. Like-named read-outs stand apart in the source and are kept apart here.

Key:
endothelial cells = assay: Proliferation of endothelial cells (general statement); format: cell-based
[1] = system: vascular smooth muscle cells; assay: Proliferation/growth of vascular smooth muscle cells (general statement); format: cell-based
Swiss 3T3 cells = assay: Proliferative response to mitogens released from MAC-treated endothelial cells, 3T3 cells; format: cell-based; settings: 10 μM CLT; quiescent 3T3 cells; conditioned media from MAC treated EC; FIG. 5
Description: (§1) CLT inhibits the mitogenic activity released from endothelial cells by activated component. When endothelial cells (EC) in culture (both BAEC and HUVEC) are treated with terminal complement components to form the MAC (membrane attack complex of complement), they release into the culture medium a potent mitogenic activity that stimulates the proliferation of quiescent cells used as indicators of the mitogens. Both, quiescent Swiss 3T3 and vascular smooth muscle cells are stimulated by the mitogens released form EC in response to the MAC (FIG. 5; Halperin et al. unpublished observation). Moreover, immunoprecipitation with specific antibodies has documented that both PDGF and bFGF released from the EC contribute in approximately equal proportion to the mitogenic activity induced by the MAC (data not shown).
(§2) To determine whether CLT inhibited the cell proliferative activity released by the MAC from EC, quiescent 3T3 and vascular smooth muscle cells were stimulated in the presence and absence of 10 μM CLT with conditioned media obtained from MAC treated EC.

[2] = system: human umbilical vein (HUVEC); assay: Cell growth (surface of culture flask covered by cell monolayer), human umbilical vein cells; format: cell-based; settings: 10 μM, 48 hs, without CLT 90±2%
Description: (§3) Measurement of cell density in culture plates: Cells of a specific test cell line are seeded at precisely the same low density in culture plates and incubated for approximately 12 hours in DME 10% serum, or other culture medium depending on the cell line tested. […] Alternatively, the cells can be detached from the plate by incubation with trypsin (Sigma, Co.) […] in ethylene diaminotetraacetic acid (ECTA; Sigma, Co); then the cells are counted in an hemocytometer chamber (Fisher, Pittsburgh, Pa.).
(§4) Bovine endothelial (BAEC) and human umbilical vein (HUVEC): Cells were seeded at a low density (2.5×10^5) in cell culture flasks (75 ml flasks) containing DME 10% calf serum (BAEC) or fetal calf serum (HUVEC); after 12 hs, when the cells were attached to the surface of the flasks, CLT (10 μM) or carrier (ethanol) were added to triplicate flasks. After 48 hs cell growth was assessed by optic miscroscopy calculating the surface of the culture flask covered by the cell monolayer.

[3] = system: vascular smooth muscle cells; assay: Proliferative response to mitogens released from MAC-treated endothelial cells, vascular smooth muscle cells; format: cell-based; settings: 10 μM CLT; quiescent vascular smooth muscle cells; conditioned media from MAC treated EC; FIG. 5
Description: as §1, §2

[4] = target: T1, Ca^++ activated K channel of human erythrocytes (Homo sapiens, UniProt O15554); assay: Inhibition of Ca++ activated K channel of human erythrocytes, 86Rb influx; format: biochemical; settings: for Order of inhibitory potency, Ca++ activated 86Rb influx / Inhibition of Ca++ activated 86Rb influx by other antimycotics: human erythrocytes; for Inhibition of Ca++ activated 86Rb influx by other antimycotics: FIG. 4
T1 construct: Preparation of Human Red Blood Cells: Blood is collected in heparinized tubes; endogenous in cells; host or cells: washed human erythrocytes (red blood cells from heparinized blood)
Description: (§5) Preparation of Human Red Blood Cells: Blood is collected in heparinized tubes and centrifuged in a Sorvall centrifuge (RB 5B, Du Pont Instruments,Newtown, Conn.) at 5° C. for 10 minutes at 3000 g. Plasma and buffy coat are carefully removed and the cells washed four times with a washing solution containing 150 mM choline chloride (Sigma Co), 1 mM MgCl2 (Sigma Co),10mM Tris-MOPS (Sigma, Calif.), pH 7.4 at 4° C.(CWS). An aliquot of cells is then suspended in an approximately equal volume of CWS, and from this original cell suspension hematocrit (Hct) and hemoglobin (optical density at 540 nm) are determined.
Methods to Test Inhibitors of the Ca^++ Activated K channel: To test inhibitors of the Ca^++ activated K channel, the channel is activated using the calcium ionophore A23187 (Calbiochem).
By radioisotopic measurement of ^86 Rb influx. The incubation medium is the same but contains 2 mM KCl and 1 μCi/ml of the radioactive tracer ^86 Rb. After spinning the samples through the phthalate layer, the tubes are rapidly frozen (-80° C.) by immersion in methanol-dry ice, the tips of the tubes containing the packed red cells cut, and counted in a Packard Gamma Counter.
(§6) The inhibitory effect of (CLT) on the Ca^++ activated K channel of human erythrocytes was assessed in the presence of 60 μmol A23187/L cell and 100 μMCaCl2.
Other antimycotics were tested for their inhibition of the Ca++ activated 86Rb influx human erythrocytes.

[5] = system: rat vascular smooth muscle cells; assay: cells; format: cell-based
Description: DNA synthesis assessed by the uptake of [3H]thymidine: Cells are grown in either 48 or 96 wells plates (Costar, Cambridge, Mass.) at 104 and 0.8 10^3 cells per well, respectively, and grown in Dubelcco's modified Eagle's medium (DME, Gibco, Grand Island, N.Y.) supplemented with 10% heat-inactivated calf serum; they are kept at 37° C. in 5% CO2. When they reach confluence, usually between 3 and 4 days, the medium is replaced with DME 0.5% serum to make them quiescent, and mitogenesis assays are performed 24 hours later.
Quiescent cells are exposed to a mitogenic stimulus, such as 10% serum, PDGF (Sigma Co. St. Louis, Mo.), bFGF (Upstate Biotechnologies, Lake Placid, N.Y.), or other appropriate mitogen according to the cell line, and 3 hours later 1 μCi/ml of [3H]thymidine (Dupont, Billerica, Mass. ) is added to the wells, and the cells maintained at 37° C./5% CO2 for additional 21 hours. Then the cells are washed 3 times with DME medium and the acid-precipitable radioactivity is extracted with cold 10% TCA (Sigma, Co). After neutralization with 0.3 N NaOH (Sigma Co.), aliquots are counted in a Packard Tri-Carb Scintillation counter (Packard Instrument, Downer's Grove, Ill.).
Rat vascular smooth muscle cells (murine cell line): Quiescent cells were stimulated with purified growth factors (PDGF and bFGF, […]) and synthesis of DNA was assessed by the incorporation of [3H]thymidine measured 24 hours later.
Cells were stimulated using […] bFGF. […] (FIG. 2)
Other antimycotics were tested for their inhibition of bFGF-stimulated DNA synthesis in rat vascular smooth muscle cells.

[6] = target: T1, Ca^++ activated K channel of human erythrocytes; assay: Inhibition of Ca++ activated K channel of human erythrocytes, K efflux; format: biochemical; settings: 60 μmol A23187/L cell, 100 μM CaCl2
Description: Ca^++ -sensitive K+ channels have wide distribution among cells, including the human red cell where they were originally discovered and which is the most commonly utilized assay system for activators and inhibitors of the channel for the following reasons: they are readily available, can be easily manipulated in the laboratory, and transport assays can be accurately standardized by reading the hemoglobin concentration of a red cell suspension.
as §5, with “determined. […]” for “determined.”
as §6

[7] = system: bovine endothelial (BAEC); assay: Cell growth (surface of culture flask covered by cell monolayer), bovine endothelial cells; format: cell-based; settings: 10 μM, 48 hs, without CLT 90±2%
Description: as §3, §4

17-hydroxylase = settings: cited from earlier work
17-20 desmolase = settings: cited from earlier work
[8] = hormonal adjuvant for prostate cancer; cited from earlier work
[9] = system: 21- and/or 11-hydroxylase; settings: cited from earlier work
epidermal cells = assay: Growth of epidermal cells (general statement); format: cell-based

## N=C(N)NC(=O)c1nc(Cl)c(N)nc1N [amiloride]
Endothelial cells
  Inhibition of proliferation of endothelial cells: do not inhibit cell proliferation
[1]
  Inhibition of proliferation/growth of vascular smooth muscle cells: do not inhibit cell proliferation

## Clc1ccccc1C(c1ccccc1)(c1ccccc1)n1ccnc1 [clotrimazole]
Swiss 3T3 cells
  Inhibition of proliferative response to mitogens released from EC: completely inhibited
[2]
  Flask surface covered by cells in the presence of CLT: less than 10%
[3]
  Inhibition of proliferative response to mitogens released from EC: completely inhibited
[4]; 60 μmol A23187/L cell, 100 μM CaCl2
  Inhibition of Ca^++ activated 86Rb influx: markedly inhibited
[4]
  Order of inhibitory potency, Ca++ activated 86Rb influx: clotrimazole more than miconazole
[5]
  Dose response of inhibition of DNA synthesis: dose dependent
  Inhibition of DNA synthesis: complete inhibition
  Inhibition of PDGF stimulated DNA synthesis: completely inhibited
  Inhibition of bFGF stimulated DNA synthesis: completely inhibited
  Inhibition of bFGF-stimulated DNA synthesis: inhibited DNA synthesis
  Order of inhibitory potency, bFGF-stimulated DNA synthesis: CLT more potent than ECZ
  Reversibility of the inhibition of DNA synthesis: reversed by removing CLT
[5]; Rattus norvegicus, read-out: Inhibition of DNA synthesis
  inhibition at 1 µM: 45%
[6]
  Inhibition of Ca^++ activated K efflux: markedly inhibited
[7]
  Flask surface covered by cells in the presence of CLT: less than 10%

## Clc1ccc(COC(Cn2ccnc2)c2ccc(Cl)cc2Cl)cc1 (stereo not drawn) [econazole]
[4]
  Order of inhibitory potency, Ca++ activated 86Rb influx: both of these were more than econazole
[5]; 10 μM, FIG. 3
  Order of inhibitory potency, bFGF-stimulated DNA synthesis: ECZ more potent than MCZ
[5]; antimycotics at 10 μM, FIG. 3
  Inhibition of bFGF-stimulated DNA synthesis: inhibited DNA synthesis

## OC(Cn1cncn1)(Cn1cncn1)c1ccc(F)cc1F [fluconazole]
[4]
  Inhibition of Ca++ activated 86Rb influx by other antimycotics: no inhibition

## CC(=O)N1CCN(c2ccc(OCC3COC(Cn4ccnc4)(c4ccc(Cl)cc4Cl)O3)cc2)CC1 (stereo not drawn) [ketoconazole]
17-hydroxylase
  Blockade of 17-hydroxylase: partial blockade
17-20 desmolase
  Inhibition of 17-20 desmolase: inhibition
Endothelial cells
  Inhibition of proliferation of endothelial cells: not useful for inhibiting
[8]
  Plasma testosterone reduction: reduces plasma testosterone to castration levels
[9]
  Inhibition of 21- and/or 11-hydroxylase: marked inhibition
[1]
  Inhibition of proliferation/growth of vascular smooth muscle cells: not useful for inhibiting; also recorded: ineffective
Epidermal cells
  Inhibition of growth of epidermal cells: ineffective

## Cc1ncc([N+](=O)[O-])n1CCO [metronidazole]
[4]
  Inhibition of Ca++ activated 86Rb influx by other antimycotics: only marginal

## Clc1ccc(COC(Cn2ccnc2)c2ccc(Cl)cc2Cl)c(Cl)c1 (stereo not drawn) [miconazole]
[4]
  Order of inhibitory potency, Ca++ activated 86Rb influx: both of these were more than econazole
[5]; 10 μM, FIG. 3
  Order of inhibitory potency, bFGF-stimulated DNA synthesis: ECZ more potent than MCZ
[5]; antimycotics at 10 μM, FIG. 3
  Inhibition of bFGF-stimulated DNA synthesis: inhibited DNA synthesis

## Cc1ncc([N+](=O)[O-])n1CC(O)CCl (stereo not drawn) [ornidazole]
[4]
  Inhibition of Ca++ activated 86Rb influx by other antimycotics: no inhibition

## C[C@@H]1O[C@@H](O[C@H]2C[C@@H](O)[C@]3(CO)[C@H]4[C@H](O)C[C@]5(C)[C@@H](C6=CC(=O)OC6)CC[C@]5(O)[C@@H]4CC[C@]3(O)C2)[C@H](O)[C@H](O)[C@H]1O [ouabain]
Endothelial cells
  Inhibition of proliferation of endothelial cells: do not inhibit cell proliferation
[1]
  Inhibition of proliferation/growth of vascular smooth muscle cells: do not inhibit cell proliferation

## CCS(=O)(=O)CCn1c([N+](=O)[O-])cnc1C [tinidazole]
[4]
  Inhibition of Ca++ activated 86Rb influx by other antimycotics: no inhibition

## charybdotoxin
Endothelial cells
  Inhibition of proliferation of endothelial cells: do not inhibit proliferation
[1]
  Inhibition of proliferation/growth of vascular smooth muscle cells: do not inhibit proliferation
[5]; FIG. 3
  Inhibition of DNA synthesis by other inhibitors of the Ca^++ activated K channel: failed to inhibit DNA synthesis

## iberiotoxin (QFTDVDCSVSKECWSVCKDLFGVDRGKCMGKKCRCYQ; UniProt P24663 1-37, looked up)
Endothelial cells
  Inhibition of proliferation of endothelial cells: do not inhibit proliferation
[1]
  Inhibition of proliferation/growth of vascular smooth muscle cells: do not inhibit proliferation
[5]; FIG. 3
  Inhibition of DNA synthesis by other inhibitors of the Ca^++ activated K channel: failed to inhibit DNA synthesis

## kaliotoxin: specific inhibitor of the Ca^++ activated potassium channel
Endothelial cells
  Inhibition of proliferation of endothelial cells: do not inhibit proliferation
[1]
  Inhibition of proliferation/growth of vascular smooth muscle cells: do not inhibit proliferation
[5]; FIG. 3
  Inhibition of DNA synthesis by other inhibitors of the Ca^++ activated K channel: failed to inhibit DNA synthesis
